# Key:
# PARP2 = PARP2 (Homo sapiens (Human), UniProt Q9UGN5); assay: PARP2 biochemical assay (BPS kit)
# [1] = biological target: 6×HIS-tankyrase 2 (946-1162) (Homo sapiens (Human), UniProt Q9H2K2); assay: Tankyrase 2 biochemical assay (AlphaLisa, PARsylation); conditions: 250 nM NAD; read-out: TNKS2 IC50
# PARP1 = PARP1 (Homo sapiens (Human), UniProt P09874); assay: PARP1 biochemical assay (Trevigen kit)
# Description: PARP1 biochemical assay was purchased as a kit from Trevigen (cat.#4676-096-K) and used per manufacturers recommendations.
# [2] = system: total β-catenin in SW480 colorectal cells; assay: Total β-catenin MSD 96-well plate assay for SW480 cells; conditions: Homo sapiens, SW480, read-out: SW480-Total beta-catenin (TBC) IC50 IP
# [3] = biological target: 6×HIS-tankyrase1 (1091-1325) (Homo sapiens (Human), UniProt O95271); assay: Tankyrase 1 biochemical assay (AlphaLisa, PARsylation); conditions: 400 nM NAD, 60 minutes at RT; read-out: TNKS1 IC50
# Sequence of 6×HIS-tankyrase1 (1091-1325) (O95271 1091-1325): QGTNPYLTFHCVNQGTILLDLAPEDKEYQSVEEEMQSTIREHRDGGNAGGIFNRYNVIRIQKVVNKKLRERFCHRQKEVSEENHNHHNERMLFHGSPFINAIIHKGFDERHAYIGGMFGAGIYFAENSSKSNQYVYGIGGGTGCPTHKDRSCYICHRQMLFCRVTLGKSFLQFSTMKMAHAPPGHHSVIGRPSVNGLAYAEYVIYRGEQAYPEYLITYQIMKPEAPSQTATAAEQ
# [4] = system: Axin2 accumulation in SW480 cells; assay: Axin2 384 immunofluorescence assay; format: cell-based; conditions: Homo sapiens; SW480 cells, 24 hours; read-out: Axin2 384 IF EC50
# Sequence of PARP2 (Q9UGN5 whole entry): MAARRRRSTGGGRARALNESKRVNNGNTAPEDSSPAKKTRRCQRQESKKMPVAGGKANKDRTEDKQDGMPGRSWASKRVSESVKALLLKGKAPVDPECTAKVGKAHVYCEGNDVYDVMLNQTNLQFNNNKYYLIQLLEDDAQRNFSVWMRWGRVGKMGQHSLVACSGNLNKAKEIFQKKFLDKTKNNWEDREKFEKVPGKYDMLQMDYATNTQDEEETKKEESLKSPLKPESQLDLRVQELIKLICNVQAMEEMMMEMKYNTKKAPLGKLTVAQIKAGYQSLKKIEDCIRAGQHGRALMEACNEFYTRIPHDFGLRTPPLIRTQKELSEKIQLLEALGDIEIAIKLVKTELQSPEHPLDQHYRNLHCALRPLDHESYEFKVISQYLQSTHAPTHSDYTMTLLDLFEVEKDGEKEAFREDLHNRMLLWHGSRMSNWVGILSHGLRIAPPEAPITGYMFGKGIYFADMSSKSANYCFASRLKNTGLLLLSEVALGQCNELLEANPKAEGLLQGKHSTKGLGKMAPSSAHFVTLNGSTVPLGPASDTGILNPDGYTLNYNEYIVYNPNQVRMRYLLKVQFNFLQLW
# Sequence of PARP1 (P09874 whole entry): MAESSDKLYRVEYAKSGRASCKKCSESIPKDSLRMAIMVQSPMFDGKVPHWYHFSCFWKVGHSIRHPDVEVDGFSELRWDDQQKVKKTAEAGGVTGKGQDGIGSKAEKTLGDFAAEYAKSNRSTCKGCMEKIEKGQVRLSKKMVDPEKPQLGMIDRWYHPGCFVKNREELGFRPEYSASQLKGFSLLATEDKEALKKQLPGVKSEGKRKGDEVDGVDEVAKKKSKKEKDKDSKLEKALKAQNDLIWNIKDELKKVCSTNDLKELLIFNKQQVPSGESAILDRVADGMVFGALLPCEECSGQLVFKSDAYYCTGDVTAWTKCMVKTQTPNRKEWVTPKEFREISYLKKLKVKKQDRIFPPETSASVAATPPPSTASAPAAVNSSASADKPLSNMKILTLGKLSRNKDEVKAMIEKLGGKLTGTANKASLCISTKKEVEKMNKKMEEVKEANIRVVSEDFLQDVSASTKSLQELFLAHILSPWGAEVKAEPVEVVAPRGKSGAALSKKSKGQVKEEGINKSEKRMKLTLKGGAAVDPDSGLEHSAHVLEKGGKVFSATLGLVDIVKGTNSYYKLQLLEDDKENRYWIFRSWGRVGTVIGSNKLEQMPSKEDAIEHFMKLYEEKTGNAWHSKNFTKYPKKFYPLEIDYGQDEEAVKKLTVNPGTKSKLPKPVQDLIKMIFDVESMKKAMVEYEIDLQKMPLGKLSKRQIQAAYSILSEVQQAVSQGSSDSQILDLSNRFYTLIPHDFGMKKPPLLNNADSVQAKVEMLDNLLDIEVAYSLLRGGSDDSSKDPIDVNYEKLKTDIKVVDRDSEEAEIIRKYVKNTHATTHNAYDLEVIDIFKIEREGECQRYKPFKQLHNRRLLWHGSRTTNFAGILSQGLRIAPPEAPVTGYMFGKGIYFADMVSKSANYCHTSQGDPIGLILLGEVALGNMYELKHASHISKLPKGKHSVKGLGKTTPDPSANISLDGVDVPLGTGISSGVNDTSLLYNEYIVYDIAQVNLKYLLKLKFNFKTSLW
# Sequence of 6×HIS-tankyrase 2 (946-1162) (Q9H2K2 946-1162): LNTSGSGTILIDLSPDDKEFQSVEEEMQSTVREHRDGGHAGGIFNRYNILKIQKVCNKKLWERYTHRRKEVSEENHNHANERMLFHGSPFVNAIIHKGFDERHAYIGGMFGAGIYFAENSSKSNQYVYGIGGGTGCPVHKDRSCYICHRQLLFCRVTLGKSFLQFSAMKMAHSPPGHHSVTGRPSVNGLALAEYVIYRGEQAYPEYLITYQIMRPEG
SMILES,IC50 (PARP2),IC50 [1],IC50 (PARP1),IC50 [2],IC50 [3],EC50 [4]
"Cc1cccc(-c2nnc(C3CCN(C(=O)CCCc4nc5ccccc5c(=O)[nH]4)CC3)o2)c1 [Example 22, 2-(4-oxo-4-(4-(5-(m-tolyl)-1,3,4-oxadiazol-2-yl)piperidin-1-yl)butyl)quinazolin-4(3H)-one]",1590 nM,4.13 nM,3130 nM,217 nM,19.4 nM,333 nM
"O=C(CCCc1nc2ccccc2c(=O)[nH]1)N1CCC(c2nnc(-c3ccc(F)cc3)o2)CC1 [Example 6, 2-(4-(4-(5-(4-fluorophenyl)-1,3,4-oxadiazol-2-yl)piperidin-1-yl)-4-oxobutyl)quinazolin-4(3H)-one]",783 nM,2.59 nM,5410 nM,63.9 nM,18.8 nM,247 nM
"O=C(CCCc1nc2ccccc2c(=O)[nH]1)N1CCC(c2nnc(COc3ccc(Cl)cc3)o2)CC1 [Example 17, 2-(4-(4-(5-((4-chlorophenoxy)methyl)-1,3,4-oxadiazol-2-yl)-1-piperidinyl)-4-oxobutyl)-4(3H)-quinazolinone]",916 nM,152 nM,3790 nM,2190 nM,646 nM,6390 nM
"O=C(CCCc1nc2ccccc2c(=O)[nH]1)N[C@H]1CC[C@H](c2nnc(-c3cccc(F)c3)o2)CC1 [Example 31, N-(trans-4-(5-(3-fluorophenyl)-1,3,4-oxadiazol-2-yl)cyclohexyl)-4-(4-oxo-3,4-dihydro-2-quinazolinyl)butanamide]",1150 nM,0.237 nM,1050 nM,24.8 nM,0.469 nM,30.9 nM
"Cn1c(=O)n(C2CCN(C(=O)CCCc3nc4ccccc4c(=O)[nH]3)CC2)c2ccccc21 [Example 54, 2-(4-(4-(3-methyl-2-oxo-2,3-dihydro-1H-benzimidazol-1-yl)-1-piperidinyl)-4-oxobutyl)-4(3H)-quinazolinone]",673 nM,17 nM,3200 nM,1120 nM,39.1 nM,3630 nM
"Cc1ccc(-c2nnc(C3CCN(C(=O)CCCc4nc5ccccc5c(=O)[nH]4)CC3)o2)cc1 [Example 23, 2-(4-oxo-4-(4-(5-(p-tolyl)-1,3,4-oxadiazol-2-yl)piperidin-1-yl)butyl)quinazolin-4(3H)-one]",455 nM,6.31 nM,3300 nM,152 nM,656 nM,601 nM
"O=C(CCCc1nc2ccccc2c(=O)[nH]1)N1CCC(c2nnc(-c3ccc(Cl)cc3)o2)CC1 [Example 4, 2-(4-(4-(5-(4-chlorophenyl)-1,3,4-oxadiazol-2-yl)piperidin-1-yl)-4-oxobutyl)quinazolin-4(3H)-one]",961 nM,2.06 nM,2410 nM,36.4 nM,11 nM,210 nM
"O=C(CCCc1nc2ccccc2c(=O)[nH]1)N1CCC(n2c(=O)[nH]c3cc(Cl)ccc32)CC1 [Example 27, 2-(4-(4-(5-chloro-2-oxo-2,3-dihydro-1H-benzimidazol-1-yl)-1-piperidinyl)-4-oxobutyl)-4(3H)-quinazolinone]",99.7 nM,0.478 nM,887 nM,63.7 nM,1.34 nM,114 nM
"O=C(CCCc1nc2ccccc2c(=O)[nH]1)N1CCC(c2nnc(-c3cccnc3)o2)CC1 [Example 13, 2-(4-oxo-4-(4-(5-(3-pyridinyl)-1,3,4-oxadiazol-2-yl)-1-piperidinyl)butyl)-4(3H)-quinazolinone]",1240 nM,6.54 nM,7090 nM,358 nM,42.8 nM,461 nM
"O=C(CCCc1nc2ccccc2c(=O)[nH]1)N[C@H]1CC[C@H](Oc2ccc(F)cc2)CC1 [Example 77, N-(trans-4-(4-fluorophenoxy)cyclohexyl)-4-(4-oxo-3,4-dihydro-2-quinazolinyl)butanamide]",1820 nM,0.601 nM,1710 nM,119 nM,4.37 nM,601 nM
"O=C(CCCc1nc2ccccc2c(=O)[nH]1)N1CCC(c2nnc(-c3cccc(Cl)c3)o2)CC1 [Example 3, 2-(4-(4-(5-(3-chlorophenyl)-1,3,4-oxadiazol-2-yl)-1-piperidinyl)-4-oxobutyl)-4(3H)-quinazolinone]",414 nM,2.54 nM,3050 nM,41.7 nM,11 nM,260 nM
"N#Cc1cccc(-c2nnc(C3CCN(C(=O)CCCc4nc5ccccc5c(=O)[nH]4)CC3)o2)c1 [Example 20, 3-(5-(1-(4-(4-oxo-3,4-dihydroquinazolin-2-yl)butanoyl)piperidin-4-yl)-1,3,4-oxadiazol-2-yl)benzonitrile]",370 nM,3.19 nM,2850 nM,151 nM,11.3 nM,166 nM
"O=C(CCCc1nc2ccccc2c(=O)[nH]1)N[C@H]1CC[C@H](c2nnc(-c3ccc(Cl)cc3)o2)CC1 [Example 29, N-(trans-4-(5-(4-chlorophenyl)-1,3,4-oxadiazol-2-yl)cyclohexyl)-4-(4-oxo-3,4-dihydro-2-quinazolinyl)butanamide]",889 nM,0.43 nM,1670 nM,14.9 nM,0.549 nM,30.2 nM
"O=C(CCCc1nc2ccccc2c(=O)[nH]1)N1CCC(n2c(=O)[nH]c3cc(F)ccc32)CC1 [Example 51, 2-(4-(4-(5-fluoro-2-oxo-2,3-dihydro-1H-benzimidazol-1-yl)-1-piperidinyl)-4-oxobutyl)-4(3H)-quinazolinone trifluoroacetic acid]",553 nM,0.517 nM,894 nM,348 nM,4.09 nM,661 nM
"Cc1ccc2[nH]c(=O)n(C3CCN(C(=O)CCCc4nc5ccccc5c(=O)[nH]4)CC3)c2c1 [Example 7, 2-(4-(4-(6-methyl-2-oxo-2,3-dihydro-1H-benzimidazol-1-yl)-1-piperidinyl)-4-oxobutyl)-4(3H)-quinazolinone]",192 nM,3.38 nM,1930 nM,626 nM,6.94 nM,651 nM
"O=C(CCCc1nc2ccccc2c(=O)[nH]1)N1CCC(n2c(=O)[nH]c3cccnc32)CC1 [Example 26, 2-(4-oxo-4-(4-(2-oxo-1,2-dihydro-3H-imidazo[4,5-b]pyridin-3-yl)-1-piperidinyl)butyl)-4(3H)-quinazolinone]",397 nM,1.51 nM,4930 nM,361 nM,5.07 nM,1410 nM
"O=C(CSc1nc2ccccc2c(=O)[nH]1)N1CCC(c2nnc(-c3ccccc3)o2)CC1 [Example 89, 2-((2-oxo-2-(4-(5-phenyl-1,3,4-oxadiazol-2-yl)piperidin-1-yl)ethyl)thio)quinazolin-4(3H)-one]",350 nM,6.33 nM,1390 nM,1710 nM,16.6 nM,2330 nM
